Results published in patent US6825230B2, “Spiro and dispiro 1,2,4-trixolane antimalarials” (Medicines for Malaria Venture MMV, priority 2002, dated 2004).
In brackets after ≈: the same amount, converted by molar mass. Read-outs that look alike come from different tables or passages of the source.

Key:
[1] = test system: chloroquine-resistant K1 strain of P. falciparum; test: In vitro antimalarial semiautomated microdilution assay ([3H]-hypoxanthine incorporation), K1 strain; assay type: cell-based, Plasmodium falciparum; details: Plasmodium falciparum
In short: (§1)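 Asynchronous stock-culture parasites (intraerythrocytic forms), serial compound dilutions; readout [3H]-hypoxanthine uptake; IC50 via Logit regression.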

[2] = test system: chloroquine-sensitive NF54 strain of P. falciparum; test: In vitro antimalarial semiautomated microdilution assay ([3H]-hypoxanthine incorporation), NF54 strain; assay type: cell-based, Plasmodium falciparum; details: Plasmodium falciparum
In short: as §1

[3] = test system: ANKA strain of P. berghei; test: Single dose STI in vivo screen in infected mice; set-up: species or system Plasmodium berghei; details: for Survival (days) 10 mg/kg po: single 10 mg/kg po in 3% ethanol and 7% Tween 80; for Survival (days) 10 mg/kg po / Survival (days) 10 mg/kg SSV po / Survival (days) 10 mg/kg sc: untreated 6-7 days; for Activity (%) 10 mg/kg po: single 10 mg/kg po in 3% ethanol and 7% Tween 80 on day 1 post-infection; for Activity (%) 10 mg/kg po / Activity (%) 10 mg/kg SSV po / Activity (%) 10 mg/kg sc: percent reduction in parasitemia on day 3; for Survival (days) 10 mg/kg SSV po: single 10 mg/kg po in SSV; for Activity (%) 10 mg/kg SSV po: single 10 mg/kg po in standard suspending vehicle (SSV) on day 1 post-infection; for Survival (days) 10 mg/kg sc: single 10 mg/kg sc in 3% ethanol and 7% Tween 80; for Activity (%) 10 mg/kg sc: single 10 mg/kg sc in 3% ethanol and 7% Tween 80 on day 1 post-infection
[4] = chloroquine-resistant K1 strain, 72 h incubation, read-out: IC50 (ng/ml) K1
[5] = chloroquine-sensitive NF54 strain, 72 h incubation, read-out: IC50 (ng/ml) NF54
[6] = K1, 72 h, read-out: IC50 (ng/ml) K1, chloroquine-resistant K1 strain, 72 h incubation
[7] = NF54, 72 h, read-out: IC50 (ng/ml) NF54, chloroquine-sensitive NF54 strain, 72 h incubation

Structure (SMILES) | IC50 [1, 4] [ng/mL] | IC50 [2, 5] [ng/mL] | Survival (days) 10 mg/kg po [3] [days] | Activity (%) 10 mg/kg po [3] | Survival (days) 10 mg/kg SSV po [3] [days] | Activity (%) 10 mg/kg SSV po [3] | Survival (days) 10 mg/kg sc [3] [days] | Activity (%) 10 mg/kg sc [3] | IC50 [1, 6] [ng/mL] | IC50 [2, 7] [ng/mL]
NC(=O)N[C@H]1CC[C@]2(CC1)OOC1(O2)C2CC3CC(C2)CC1C3 (stereo partly shown) [OZ221] | > 10 | > 10 | 6.3 | 80% | 7.0 | 87% | 8.0 | 97% | – | –
CC(C)(C)NC(=O)N[C@H]1CC[C@]2(CC1)OOC1(O2)C2CC3CC(C2)CC1C3 (stereo partly shown) [OZ222] | 3.9 (≈ 10.3 nM) | 6.3 (≈ 16.6 nM) | 7.7 | 87% | 7.0 | 75% | 10.0 | 99.76% | – | –
COC(=O)c1cncn1C[C@H]1CC[C@]2(CC1)OOC1(O2)C2CC3CC(C2)CC1C3 (stereo partly shown) [OZ223] | 4 (≈ 9.94 nM) | > 10 | 7.3 | 89% | 6.3 | 79% | 12.0 | 99.57% | – | –
COC(=O)c1cn(C[C@H]2CC[C@]3(CC2)OOC2(O3)C3CC4CC(C3)CC2C4)cn1 (stereo partly shown) [OZ224] | 2 (≈ 4.97 nM) | 3 (≈ 7.45 nM) | 6.0 | 0% | 5.7 | 5% | 5.7 | 20% | – | –
O=C(O)c1cn(C[C@H]2CC[C@]3(CC2)OOC2(O3)C3CC4CC(C3)CC2C4)cn1 (stereo partly shown) [OZ225] | 7.3 (≈ 18.8 nM) | > 10 | 5.7 | 0% | 5.7 | 0% | 6.3 | 17% | – | –
[N-]=[N+]=NCC[C@H]1CC[C@]2(CC1)OOC1(O2)C2CC3CC(C2)CC1C3 (stereo partly shown) [OZ228] | – | – | 10.3 | 99.94% | 6.0 | 28% | 14.0 | 99.94% | 2 (≈ 6 nM) | 2.1 (≈ 6.3 nM)
O=C(NC[C@H]1CC[C@]2(CC1)OOC1(O2)C2CC3CC(C2)CC1C3)c1ccccc1C(=O)NC[C@H]1CC[C@]2(CC1)OOC1(O2)C2CC3CC(C2)CC1C3 (stereo partly drawn) [OZ230, N,N′-Bis[cis-[adamantane-2-spiro-3′-1′,2′,4′-trioxaspiro[4.5]dec-8′-yl]methyl]-1,2-benzenedicarboxamide] | – | – | 5.3 | 0/0/0% | 5.7 | 0/0/0% | 5.7 | 0/0/0% | 3.9 (≈ 5.44 nM) | 3.6 (≈ 5.02 nM)
O=C(O)c1cncn1C[C@H]1CC[C@]2(CC1)OOC1(O2)C2CC3CC(C2)CC1C3 (stereo partly drawn) [OZ231, cis-Adamantane-2-spiro-3′-8′-(5′-carboxy-1′H-imidazol-1′-ylmethyl)-1′,2′,4′-30 trioxaspiro[4.5]decane] | – | – | 5.3 | 0/0/0% | 5.7 | 0/0/0% | 6.0 | 0/0/0% | > 10 | > 10
CN(C)C[C@H]1CC[C@]2(CC1)OOC1(O2)C2CC3CC(C2)CC1C3 (stereo partly shown) [OZ232] | – | – | 8.0 | 76% | 7.3 | 74% | 8.7 | 99.94% | 0.3 (≈ 0.933 nM) | 0.5 (≈ 1.56 nM)
COC(=O)c1ncnn1C[C@H]1CC[C@]2(CC1)OOC1(O2)C2CC3CC(C2)CC1C3 (stereo partly shown) [OZ233] | – | – | 7.0 | 69% | 7.7 | 76% | 8.3 | 99.66% | 1.7 (≈ 4.21 nM) | 1.9 (≈ 4.71 nM)
COC(=O)c1ncn(C[C@H]2CC[C@]3(CC2)OOC2(O3)C3CC4CC(C3)CC2C4)n1 (stereo partly shown) [OZ234] | – | – | 6.0 | 12% | 6.0 | 0% | 6.3 | 0% | 3 (≈ 7.44 nM) | 3.6 (≈ 8.92 nM)
